Measurements from patent US20260240851A1, “Treatment of Parkinson's Disease in a Patient Using a Glucocerebrosidase Activator” (BIAL - R&D Investments, S.A., priority 2023, published 2026).
Like-named read-outs stand apart in the source and are kept apart here.

Experiment: LTI-291-003 multiple dose study in GBA-PD: plasma and CSF pharmacokinetics
Assay type: in vivo, human
Conditions: for Tmin / Tmax: median; for Kp at 4 h / Cmax / AUC(0-t) / Tmax: human, oral; for Kp at 4 h: CSF and plasma, after the 28th daily dose, read-out: CSF-to-plasma concentration ratio, mean (SD); for Cmax / AUC(0-t) / Tmax: plasma
From the text: This study was a Phase 1b, randomized, double-blind, placebo-controlled, multiple oral dose study of Compound A in 40 subjects (aged 40 to 80 years) with GBA-PD. Approximately 50% of the enrolled subjects had major (loss of 30%-50% total activity) mutations in GCase and 50% had polymorphism mutation (loss of 10%-20% of total activity) mutations in GCase. The objectives of this study were to investigate the safety, tolerability, and PK of multiple once-daily oral administration of Compound A and to explore the accompanying pharmacodynamic changes in subjects with GBA-PD with major and polymorphism mutations. Subjects received once-daily oral doses of 10 mg (n=10), 30 mg (n=10), or 60 mg (2×30 mg capsules) (n=10) Compound A or placebo (n=10) for 28 consecutive days.
Blood samples for Compound A concentrations were collected up to 6 hours after the first and last doses. CSF samples for Compound A concentrations were taken before the first dose and 4 hours after the last dose for each dose level.

[1] = 10 mg daily, dose 28, GBA-PD, geometric mean
[2] = 30 mg daily, dose 1, GBA-PD, geometric mean
[3] = 30 mg daily, dose 28, GBA-PD, geometric mean
[4] = 60 mg daily, dose 1, GBA-PD, geometric mean
[5] = 60 mg daily, dose 28, GBA-PD, geometric mean

## CCCCCO[C@H]1CC[C@H](NC(=O)c2cnn3c(C)cc(C)nc23)CC1 [Compound A, 5,7-dimethyl-N-((1S*,4S)-4-(pentyloxy)cyclohexyl)pyrazolo[1,5-a]pyrimidine-3-carboxamide]
10 mg daily, dose 1, GBA-PD, geometric mean
  Cmax/dose: 25.4 ng/mL/mg
10 mg daily, dose 1, GBA-PD, geometric mean (% CV)
  AUC0-last/dose: 109 (32.8) ng · h/mL mg
[1]
  AUC0-last/dose: 252 ng·h/mL/mg
  Cmax/dose: 52.0 ng/mL/mg
  Cmin: 246 ng/mL
10 mg daily, dose 28, GBA-PD
  Tmin: 26.3 h
[2]
  AUC0-last/dose: 76.8 ng·h/mL/mg
  Cmax/dose: 18.7 ng/mL/mg
[3]
  AUC0-last/dose: 241 ng·h/mL/mg
  Cmax/dose: 47.9 ng/mL/mg
  Cmin: 788 ng/mL
30 mg daily, dose 28, GBA-PD
  Tmin: 26.1 h
[4]
  AUC0-last/dose: 102 ng·h/mL/mg
  Cmax/dose: 25.5 ng/mL/mg
[5]
  Cmax/dose: 46.6 ng/mL/mg
  Cmin: 1370 ng/mL
60 mg daily, dose 28, GBA-PD, geometric mean (% CV)
  AUC0-last/dose: 234 (15.7) ng · h/mL mg
60 mg daily, dose 28, GBA-PD
  Tmin: 26.0 h
10 to 60 mg, after 1st and 28th dose
  total exposure (Cmax and AUC0-last) versus dose: increase in a dose proportional manner
After the 1st and 28th daily dose
  time of peak plasma concentrations (median): 2.0 h
10 mg
  Kp at 4 h: 0.0113
30 mg
  Kp at 4 h: 0.0122
60 mg
  Kp at 4 h: 0.0115
10 mg, 10 mg daily, dose 1, GBA-PD, geometric mean (% CV)
  Cmax: 254 ng/mL
10 mg, 10 mg daily, dose 1, GBA-PD, geometric mean, read-out: AUC0-6
  AUC(0-t): 1080 ng·h/mL
10 mg, 10 mg daily, dose 1, GBA-PD, geometric mean, read-out: AUC0-last
  AUC(0-t): 1090 ng·h/mL
10 mg, 10 mg daily, dose 28, GBA-PD, geometric mean
  Cmax: 520 ng/mL
10 mg, 10 mg daily, dose 28, GBA-PD, geometric mean, read-out: AUC0-6
  AUC(0-t): 2520 ng·h/mL
10 mg, 10 mg daily, dose 28, GBA-PD, geometric mean, read-out: AUC0-last
  AUC(0-t): 2520 ng·h/mL
30 mg, 30 mg daily, dose 1, GBA-PD, geometric mean (% CV)
  Cmax: 561 ng/mL
30 mg, 30 mg daily, dose 1, GBA-PD, geometric mean, read-out: AUC0-6
  AUC(0-t): 2300 ng·h/mL
30 mg, 30 mg daily, dose 1, GBA-PD, geometric mean, read-out: AUC0-last
  AUC(0-t): 2300 ng·h/mL
30 mg, 30 mg daily, dose 28, GBA-PD, geometric mean
  Cmax: 1440 ng/mL
30 mg, 30 mg daily, dose 28, GBA-PD, geometric mean, read-out: AUC0-6
  AUC(0-t): 7230 ng·h/mL
30 mg, 30 mg daily, dose 28, GBA-PD, geometric mean, read-out: AUC0-last
  AUC(0-t): 7230 ng·h/mL
60 mg, 60 mg daily, dose 1, GBA-PD, geometric mean
  Cmax: 1530 ng/mL
60 mg, 60 mg daily, dose 1, GBA-PD, geometric mean, read-out: AUC0-6
  AUC(0-t): 6080 ng·h/mL
60 mg, 60 mg daily, dose 1, GBA-PD, geometric mean, read-out: AUC0-last
  AUC(0-t): 6100 ng·h/mL
60 mg, 60 mg daily, dose 28, GBA-PD, geometric mean
  Cmax: 2790 ng/mL
60 mg, 60 mg daily, dose 28, GBA-PD, geometric mean, read-out: AUC0-6
  AUC(0-t): 14100 ng·h/mL
60 mg, 60 mg daily, dose 28, GBA-PD, geometric mean, read-out: AUC0-last
  AUC(0-t): 14100 ng·h/mL
10 mg daily, dose 1, GBA-PD
  Tmax: 2 h
30 mg daily, dose 1, GBA-PD
  Tmax: 2 h
60 mg daily, dose 1, GBA-PD
  Tmax: 2 h
In vivo
  PK in healthy subjects versus subjects with GBA-PD: similar
